The conditions of series [1]: data in patent CN103201275A, cited from earlier work.
Series [2] can be described thus: Conversion of mono-succinate non-hydrate form to hemi-succinate Form A by stirring in solvents. The following applies: cell continues 'Form A'. In kind it is physicochemical. As to the method: About 10 mg of the non-hydrate form in patent CN103201275A as starting form was added in different solvents or mixed solvents (v/v), then stirred at 5˜50° C. for about 48 hours.

The nature of series [3]: Conversion of mono-succinate non-hydrate form to Form I by stirring in solvents at different temperatures. The following applies: cell continues 'Form I'. In kind it is physicochemical. As to the method: About 10 mg of the non-hydrate form in patent CN103201275A as starting form was added in different solvents or mixed solvents (v/v), then stirred at 5-50° C. for about 48 hours. Finally, the starting form converted to Form I. Solvents and temperature used in this example is in the following in table 6.

Series [4] is described as follows: Dynamic Vapor Sorption (DVS) hygroscopicity test with XRPD before and after. The format is physicochemical. The following applies: for solid form change after hygroscopicity test (XRPD): XRPD before and after DVS 0-95% RH cycle; for Change after DVS: XRPD before and after DVS. As to the method: Dynamic Vapor Sorption (DVS) was measured via a SMS (Surface Measurement Systems) DVS Intrinsic. Typical Parameters for DVS test are listed below.
Gas and flow rate: N2, 200 mL/min
RH range: 0% RH to 95% RH
About 10.0 mg of hemi-succinate Form A was analyzed by DVS. The solid form was tested by XRPD before and after DVS.
About hygroscopicity characterization description and definition of hygroscopicity (Chinese Pharmacopoeia 2010 edition appendix XIXJ Drug hygroscopic test guidelines, test at 25° C.+/−1° C., 80% Relative Humidity)
About 10 mg of mono-succinate Form I of the present invention and non-hydrate form in patent CN103201275A were analyzed by DVS. The solid was tested by XRPD before and after hygroscopicity test.
The solid was tested by XRPD before and after hygroscopicity test.

Series [5] can be described thus: Storage stability of crystalline salt forms (XRPD, HPLC purity). In kind it is physicochemical. The following applies: 30 days; for Solid Form after storage: XRPD. As to the method: Two samples prepared by example 9, example 11 and example 13 were stored for 30 days under 25° C./60% RH and 40° C./75% RH.

This is an account of results in US10138250B2, “Salt of pyrrolo[2,3-D]pyrimidine compound and novel polymorph of salt” (Crystal Pharmatech Co., Ltd., priority 2014, dated 2018).

Molecules are shown by their SMILES. “Also recorded” adds a separate entry of the source. Read-outs that look alike come from different tables or passages of the source.

With `CN(C)C(=O)c1cc2cnc(Nc3ccc(N4CCNCC4)cn3)nc2n1C1CCCC1.O=C(O)CCC(=O)O`, the “share of non-hydrate form converted to hydrate form” value is on record as 0.52% in series [1] (25° C./80% RH) and 7.35% in series [1] (25° C./90% RH). Besides, the “water adsorbed at 25° C./90% RH” value in series [1] (25° C./90% RH) is 2.0%. The “Final Form” value in series [2] (Acetone:water = 20:1, stirred at 5˜50° C. about 48 hours) is given as “hemi-succinate”; in series [2] (Ethanol:water = 20:1, stirred at 5˜50° C. about 48 hours) it was “hemi-succinate”; in series [2] (Ethyl acetate, stirred at 5˜50° C. about 48 hours), “hemi-succinate”; in series [2] (Tetrahydrofuran:water = 20:1, stirred at 5˜50° C. about 48 hours), “hemi-succinate”; in series [3] (5° C., Ethanol:n-heptane = 4:1, about 48 hours) it was “mono-succinate”; in series [3] (50° C., Acetonitrile:water = 20:1, about 48 hours), “mono-succinate”. The “Final Form” value in series [3] (50° C., THF:Methanol = 20:1, about 48 hours) is recorded as “mono-succinate”; in series [3] (RT, Ethanol:n-heptane = 4:1, about 48 hours) it was “mono-succinate”. The molecule also came in with a Water absorption at 25° C./95% RH in series [4] (DVS) of 18.3%. Besides, in series [4] (DVS), the “water adsorbed at 25° C./95% RH” value was determined as 18.3%. Besides, in series [4], the “solid form change after hygroscopicity test (XRPD)” value was “changed”. Moreover, the “Change after DVS” value in series [4] (listed as non-hydrate form in patent CN103201275A) is on record as “changed”.
On to `CN(C)C(=O)c1cc2cnc(Nc3ccc(N4CCNCC4)cn3)nc2n1C1CCCC1.O=C(O)CCCCC(=O)O` [adipate Form A], for which, in series [5] (25° C./60% RH), the “HPLC Purity after storage” value came out at 99.1% and the “Solid Form after storage” value is on record as “No Change”. In addition, in series [5] (40° C./75% RH), the “HPLC Purity after storage” value was determined as 98.9% and the “Solid Form after storage” value is “No Change”. Further, the Water absorption at 25° C./95% RH in series [4] (DVS) is 0.7%. For the same molecule, in series [4], the “Change after DVS” value is recorded as “did not change; also recorded: No change”.
Consider `CN(C)C(=O)c1cc2cnc(Nc3ccc(N4CCNCC4)cn3)nc2n1C1CCCC1.O=C(O)CO` [glycollate Form A], for which, in series [5] (25° C./60% RH), the “HPLC Purity after storage” value was 99.7% and the “Solid Form after storage” value is on record as “No Change”. In series [5] (40° C./75% RH), the “HPLC Purity after storage” value is on record as 99.6% and the “Solid Form after storage” value is given as “No Change”. In series [4] (DVS), this molecule yielded a Water absorption at 25° C./95% RH of 1.2%. The “Change after DVS” value in series [4] is “did not change; also recorded: No change”.
As to `CN(C)C(=O)c1cc2cnc(Nc3ccc(N4CCNCC4)cn3)nc2n1C1CCCC1.CN(C)C(=O)c1cc2cnc(Nc3ccc(N4CCNCC4)cn3)nc2n1C1CCCC1.O=C(O)CCC(=O)O` [hemi-succinate Form A], the “weight gain at 80% RH” value in series [4] (DVS, 25° C., 80% RH) was 3.5%. In series [4] (DVS, 80% RH), the hygroscopicity class entry was “slightly hygroscopic (increase in mass is less than 2 percent and equal to or greater than 0.2 percent)”.
As for `CN(C)C(=O)c1cc2cnc(Nc3ccc(N4CCNCC4)cn3)nc2n1C1CCCC1.O=C(O)/C=C\C(=O)O` [maleate Form A], in series [5] (25° C./60% RH), the “HPLC Purity after storage” value was determined as 99.3% and the “Solid Form after storage” value is listed as “No Change”. Further, in series [5] (40° C./75% RH), the “HPLC Purity after storage” value was 99.3% and the “Solid Form after storage” value is “No Change”. This molecule also displayed a Water absorption at 25° C./95% RH in series [4] (DVS) of 3.4%. Besides, in series [4], the “Change after DVS” value was “did not change; also recorded: No change”.
In the case of `CN(C)C(=O)c1cc2cnc(Nc3ccc(N4CCNCC4)cn3)nc2n1C1CCCC1.O=C(O)CCC(=O)O` [mono-succinate Form I], in series [4] (DVS, 25° C./90% RH), the “water adsorbed at 25° C./90% RH” value was found to be 1.7%. Moreover, in series [4] (DVS, listed as Form I), the “water adsorbed at 25° C./95% RH” value is 4.0%. Besides, in series [4] (listed as Form I), the “solid form change after hygroscopicity test (XRPD)” value is listed as “did not change”.
